Results published in the NIST ThermoML archive (doi:10.1021/je800197t).

Experiment: xn = mol fraction of the nth substance listed
Details: 101 kPa, Liquid

CN1CCOCC1 [N-methylmorpholine] + O
Details	mass density [kg/m3]	viscosity [mPa·s]
293.15 K, x1 = 0.0452	1002.38	1.898
293.15 K, x1 = 0.0942	1005.32	2.577
293.15 K, x1 = 0.1267	1003.31	3.048
293.15 K, x1 = 0.1763	1000.27	3.562
293.15 K, x1 = 0.2022	996.93	3.777
293.15 K, x1 = 0.2538	991.88	4.115
293.15 K, x1 = 0.2843	988.53	4.238
293.15 K, x1 = 0.3275	983.61	4.395
293.15 K, x1 = 0.3754	977.87	4.439
293.15 K, x1 = 0.4033	974.29	4.429
293.15 K, x1 = 0.4286	971.29	4.406
293.15 K, x1 = 0.4689	966.09	4.331
293.15 K, x1 = 0.4983	962.76	4.241
293.15 K, x1 = 0.5433	957.25	4.065
293.15 K, x1 = 0.5983	950.09	3.798
293.15 K, x1 = 0.6438	945.88	3.544
293.15 K, x1 = 0.6942	941.06	3.187
293.15 K, x1 = 0.7587	934.53	2.792
293.15 K, x1 = 0.8163	929.89	2.323
293.15 K, x1 = 0.8869	924.9	1.791
293.15 K, x1 = 0.9244	922.59	1.503
293.15 K, x1 = 0.9812	919.88	1.166
303.15 K, x1 = 0.0452	990.98	1.594
303.15 K, x1 = 0.0942	993.65	2.036
303.15 K, x1 = 0.1267	991.58	2.451
303.15 K, x1 = 0.1763	988.46	2.922
303.15 K, x1 = 0.2022	985.14	3.065
303.15 K, x1 = 0.2538	980.12	3.386
303.15 K, x1 = 0.2843	976.81	3.497
303.15 K, x1 = 0.3275	971.96	3.619
303.15 K, x1 = 0.3754	966.31	3.669
303.15 K, x1 = 0.4033	962.77	3.636
303.15 K, x1 = 0.4286	959.83	3.635
303.15 K, x1 = 0.4689	954.72	3.562
303.15 K, x1 = 0.4983	951.45	3.521
303.15 K, x1 = 0.5433	946.05	3.363
303.15 K, x1 = 0.5983	939.74	3.128
303.15 K, x1 = 0.6438	934.89	2.878
303.15 K, x1 = 0.6942	931.06	2.588
303.15 K, x1 = 0.7587	924.36	2.262
303.15 K, x1 = 0.8163	920.39	1.857
303.15 K, x1 = 0.8869	915.52	1.489
303.15 K, x1 = 0.9244	913.29	1.359
303.15 K, x1 = 0.9812	910.58	1.091
313.15 K, x1 = 0.0452	985.04	1.327
313.15 K, x1 = 0.0942	982.32	1.715
313.15 K, x1 = 0.1267	980.45	1.968
313.15 K, x1 = 0.1763	977.58	2.348
313.15 K, x1 = 0.2022	974.42	2.482
313.15 K, x1 = 0.2538	969.64	2.703
313.15 K, x1 = 0.2843	966.47	2.838
313.15 K, x1 = 0.3275	961.8	2.908
313.15 K, x1 = 0.3754	956.33	2.901
313.15 K, x1 = 0.4033	952.91	2.869
313.15 K, x1 = 0.4286	950.06	2.869
313.15 K, x1 = 0.4689	945.1	2.798
313.15 K, x1 = 0.4983	941.92	2.758
313.15 K, x1 = 0.5433	936.67	2.602
313.15 K, x1 = 0.5983	930.57	2.388
313.15 K, x1 = 0.6438	925.8	2.244
313.15 K, x1 = 0.6942	922.05	2.031
313.15 K, x1 = 0.7587	916.24	1.764
313.15 K, x1 = 0.8163	912.31	1.495
313.15 K, x1 = 0.8869	907.94	1.222
313.15 K, x1 = 0.9244	905.91	1.077
313.15 K, x1 = 0.9812	903.31	0.952
323.15 K, x1 = 0.0452	978.13	1.119
323.15 K, x1 = 0.0942	972.37	1.334
323.15 K, x1 = 0.1267	968.24	1.539
323.15 K, x1 = 0.1763	965.46	1.761
323.15 K, x1 = 0.2022	962.36	1.858
323.15 K, x1 = 0.2538	957.73	2.023
323.15 K, x1 = 0.2843	954.64	2.113
323.15 K, x1 = 0.3275	950.07	2.183
323.15 K, x1 = 0.3754	944.75	2.176
323.15 K, x1 = 0.4033	941.43	2.143
323.15 K, x1 = 0.4286	938.65	2.144
323.15 K, x1 = 0.4689	933.8	2.073
323.15 K, x1 = 0.4983	930.71	2.033
323.15 K, x1 = 0.5433	925.57	1.948
323.15 K, x1 = 0.5983	919.96	1.783
323.15 K, x1 = 0.6438	916.85	1.677
323.15 K, x1 = 0.6942	913.49	1.536
323.15 K, x1 = 0.7587	906.16	1.362
323.15 K, x1 = 0.8163	902.37	1.158
323.15 K, x1 = 0.8869	898.07	0.954
323.15 K, x1 = 0.9244	896.15	0.939
323.15 K, x1 = 0.9812	894.06	0.841
333.15 K, x1 = 0.0452	968.24	0.708
333.15 K, x1 = 0.0942	961.01	0.998
333.15 K, x1 = 0.1267	955.3	1.111
333.15 K, x1 = 0.1763	951.37	1.251
333.15 K, x1 = 0.2022	–	1.297
333.15 K, x1 = 0.2538	942.51	1.396
333.15 K, x1 = 0.2843	939.75	1.425
333.15 K, x1 = 0.3275	935.6	1.477
333.15 K, x1 = 0.3754	930.7	1.468
333.15 K, x1 = 0.4033	927.59	1.434
333.15 K, x1 = 0.4286	925	1.433
333.15 K, x1 = 0.4689	920.44	1.361
333.15 K, x1 = 0.4983	917.56	1.319
333.15 K, x1 = 0.5433	912.67	1.232
333.15 K, x1 = 0.5983	907.35	1.126
333.15 K, x1 = 0.6438	904.17	1.033
333.15 K, x1 = 0.6942	900.9	0.935
333.15 K, x1 = 0.7587	894.82	0.837
333.15 K, x1 = 0.8163	891.64	0.809
333.15 K, x1 = 0.8869	888.89	0.719
333.15 K, x1 = 0.9244	886.87	0.703
333.15 K, x1 = 0.9812	884.98	0.709
343.15 K, x1 = 0.0452	962.12	0.499
343.15 K, x1 = 0.0942	954.33	0.564
343.15 K, x1 = 0.1267	948.38	0.653
343.15 K, x1 = 0.1763	944.12	0.691
343.15 K, x1 = 0.2022	939.98	0.704
343.15 K, x1 = 0.2538	934.96	0.729
343.15 K, x1 = 0.2843	932.11	0.757
343.15 K, x1 = 0.3275	927.87	0.771
343.15 K, x1 = 0.3754	922.89	0.793
343.15 K, x1 = 0.4033	919.76	0.757
343.15 K, x1 = 0.4286	917.15	0.755
343.15 K, x1 = 0.4689	912.58	0.773
343.15 K, x1 = 0.4983	909.69	0.718
343.15 K, x1 = 0.5433	904.8	0.701
343.15 K, x1 = 0.5983	899.49	0.661
343.15 K, x1 = 0.6438	896.3	0.629
343.15 K, x1 = 0.6942	893.02	0.598
343.15 K, x1 = 0.7587	886.99	0.569
343.15 K, x1 = 0.8163	883.81	0.566
343.15 K, x1 = 0.8869	881.05	0.556
343.15 K, x1 = 0.9244	879.04	0.551
343.15 K, x1 = 0.9812	877.14	0.535
